PMC6014988, “Precision therapeutic targeting of human cancer cell motility” (Nature Communications, 2018)

How the values were obtained:
PC3-M cells = experiment: Cell invasion of PC3-M cells with altered HSP90β; assay type: cell-based, human
Description: Fig. 4 KBU2046 decreases phosphorylation of HSP90β. a Probing for KBU2046-induced changes in protein phosphorylation. PC3-M or PC3 cells were pre-treated with 10 µM KBU2046 for 3 days, then with ±TGFβ and the resultant cell lysate probed for changes in protein phosphorylation with the KinomeView® assay. The depicted western blot utilizes KinomeView® phospho-motif antibody, BL4176; the blue arrow denotes an 83 kDa band whose phosphorylation is inhibited by KBU2046 (see Supplementary Fig. 10 for complete KinomeView® assay screening data). b Proteomic analysis. PC3 cells were pre-treated with KBU2046 or vehicle, then with TGFβ, proteins from the resultant cell lysate were immunoprecipitated with BL4176, and HSP90β was identified by LC-MS/MS analysis (see Supplementary Fig. 12 for expanded proteomic assay data). The phospho-motif recognized by the antibody is underlined; S*—denotes Ser226, whose phosphorylation is decreased by KBU2046. c, d The phospho-mimetic changes in HSP90β Ser^226 structure regulate human PCa cell invasion and KBU2046 efficacy. PC3-M cells were transfected with S226A-, S226D-, or WT-HSP90β, or empty vector (VC), treated with KBU2046 or vehicle, and cell invasion measured. Values are the mean ± SEM of a representative experiment of multiple experiments (all in replicates of N = 3); *denotes t-test P value <0.05 between bracketed conditions, or compared to VC […]
Boyden chamber cell invasion assays were performed as previously described by us[30], using either denatured collagen (BD Biosciences) or type IV human collagen (BD Biosciences), with all experiments repeated, each in N = 4 replicates. In some experiments, as indicated, cells were transfected with an expression plasmid, using Lipofectamine 2000™ (Invitrogen), or with siRNA, using DharmaFect Duo (Thermo Scientific) and co-transfected with β-Galactosidase (Plasmid pCMV•SPORT-βgal; Life Technology).
Supplementary Figure 13. Changes in HSP90β Ser226 structure as well as HSP90β expression regulate PCa cell invasion and KBU2046 efficacy. (a) Levels of HSP90β expression after transfection of cells. In manuscript Figs 4c and d, PC3-M cells were transfected with S226A-, S226D-, or WT-HSP90β, or empty vector (VC) and resultant effects upon cell invasion and KBU2046 efficacy measured. Depicted above are associated Western blots probing for HSP90β, FLAG (transfected HSP90β was FLAG-tagged) and GAPDH. (b-d) Knockdown of HSP90β decreases cell invasion and abrogates KBU2046 efficacy. PC3-M cells were transfected with siRNA to HSP90β (siHSP90b) or non-targeting siRNA (siCO). (b) The level of HSP90β (HSP90b) and HSP90α (HSP90a) transcript levels were measured by qRT/PCR, and expressed relative to that of GAPDH. (c) The level of HSP90β protein expression was measured by Western blot. (d) Cells were treated with KBU2046 (46) or vehicle control, and cell invasion measured. Values are the mean±SEM of a representative experiment of multiple experiments (all in replicates of N=3). *denotes t-test P value </= 0.05 compared to siCO.

RAF1 = experiment: In vitro kinase assay of RAF1, HSP90β and CDC37; assay type: biochemical; conditions: purified recombinant RAF1, HSP90β, CDC37
Description: MEK4/MKK4/MAP2K4 in vitro kinase assay was performed as described by us[45].

[1] = Three-day MTT cell growth inhibition assay, 1532CPTX; assay type: cell-based, human; conditions: human, 1532CPTX cells
1532CPTX = experiment: as above; assay type: cell-based, human; conditions: Homo sapiens, 72 h, 3 days
PC3-luc cells = experiment: Intracardiac injection PC3-luc bone metastasis model; assay type: in vivo, mouse
Text: Fig. 3 KBU2046 inhibits bone destruction. a Treatment schema. Athymic mice were given intracardiac (IC) injections of PC3-luc cells on day 0 under ultrasound guidance, and underwent weekly IVIS imaging starting 7 days post injection. Cohorts of N = 20 control, N = 20 pre (treatment from 3 days prior to IC injection through end of the experiment), N = 10 Pre7Stop (treatment from 3 days prior to IC injection through 7 days post IC injection), and N = 10 post-treatment (treatment from 3 days post IC injection through end of the experiment) mice were dosed with 80 mg/kg KBU2046 daily by oral gavage and mock-treated with vehicle all other times. Whole-body (b) and mandible (c) flux are depicted, as determined from weekly IVIS imaging. d At week 4 post injection (i.e., at the end of the experiment), CT scans were performed on control, pre-, and post-treatment cohorts, and mandibular destruction quantified. e Representative images of pre and control mice are depicted. Arrows denote areas of bone destruction in controls, and corresponding areas in the pre mouse. Student’s t-test (b, c) and Fisher’s exact test (d) P values between the denoted cohorts are shown
Prostate cancer: intracardiac (IC) injection: IC injection of 4.0 × 10^5 PC3-Luc cells into male 6–8 week old athymic mice with IVIS imaging was performed as described, and was done so under ultrasound guidance (Supplementary Fig. 9). Mice were treated pre- and/or post-IC injection, as indicated. The pretreatment cohort emulates a metastasis naive model wherein cell motility is required in order for cells to invade into a distant organ, in this case, the jaw bone, for which this model is widely used. If KBU2046 were inhibiting cell motility, then in this model it would act to inhibit metastasis formation. In contrast, with the post-implantation cohort, cells have already completed invasion into the jaw bone, and distant metastasis have been established. […] IVIS imaging was performed 30 min after IC injection to confirm systemic distribution of cells, and thereafter weekly for 4 weeks starting 7 days post injection, allowing real-time tracking of metastasis development and growth. Computed tomograpgy (CT) (Inveon, Seimens) radiographic imaging was performed on some mice, as indicated, and resultant images analyzed in a blinded fashion using Inveon Research Workplace 4.2 visualization/analysis software and ImageJ. […] Experimental groups were randomly assigned to cages prior to the initiation of the study. CT images were analyzed in a blinded fashion to determine total bone loss using both the Invenon Research Workplace 4.2 visualization/analysis software and ImageJ. Specifically, to asses bone loss in an unbiased manner, an operator randomly loaded images into the system and blocked out identifying information prior to analysis by two separate blinded individuals.

[2] = pre-cohort, 80 mg/kg daily oral gavage

Compound: O=C1c2ccccc2OCC1c1ccc(F)cc1 (racemic) [KBU2046, (±)-3(4-fluorophenyl)chroman-4-one]
- cell invasion (PC3-M cells; (S226A)-HSP90β transfected cells): does not further inhibit cell invasion
- cell invasion (PC3-M cells; (S226D)-HSP90β transfected cells): did not significantly inhibit cell invasion
- cell invasion (PC3-M cells; VC and WT-HSP90β cells): significantly inhibited invasion
- cell invasion (PC3-M cells; VC cells): significantly inhibits invasion
- anti-invasion efficacy (PC3-M cells; siRNA-mediated HSP90β knockdown): abrogated KBU2046 efficacy
- phosphorylation of RAF1 Ser338 (RAF1): decreased phosphorylation of RAF1’s Ser338 activation motif
- viability at 3 days, 50 µM [1]: 99.4%
- IC20 (1532CPTX): > 50 µM
- IC50 (1532CPTX): > 50 µM
- total body metastasis (PC3-luc cells; Pre7Stop cohort): total body metastasis is significantly decreased
- metastasis to the total body and jaw (PC3-luc cells; post-cohort, treatment from 3 days post IC injection): do not differ from control mice
- metastasis to the mandible (PC3-luc cells; [2]): decreased metastasis to the mandible
- total metastatic burden (PC3-luc cells; [2]): significant decrease in total metastatic burden
- destruction of bone (mandible, CT) (PC3-luc cells; pre-cohort, week 4): decreased destruction of bone
